The values that follow are results of earlier work, collected in patent US20130202637A1, “Dietary Supplements Including Ellagitannins and Ellagic Acid” (priority 2012, published 2013).

Structures are written as SMILES.

Regarding `O=c1oc2c(O)c(O)cc3c(=O)oc4c(O)c(O)cc1c4c23` [ellagic acid], the G-Arrest began in the data set on breast cancer and in the data set on cervical cancer was 72 h throughout.
